Legend:
[1] = Tissue distribution of radioactivity by Quantitative Whole-Body Autoradiography (QWBA), Group 4; type: in vivo; settings: rat, single IV 2 mg/kg
Description: (§1) A study was conducted to determine the pharmacokinetics, rates and routes of excretion with mass baseline and tissue distribution of radioactivity, after a single intravenous dose administration of formula XIII (also referred to as [^14C]DAP) was administered to the rats by tail vein intravenous injection at a
(§2) The study was conducted on 19 male rats divided into 4 groups. The first group of 6 rats was used for blood collection (Group 1); the second group of 4 rats was used for urine, feces, cage rinses and wipes and carcasses collection (Group 2); the third group of 4 rats was used for expired air collection (Group 3); the fourth group of 5 rats was used for terminal blood/serum and tissue distribution by Quantitative Whole-Body Autoradiography (QWBA) (Group 4).
(§3) For Group 4, formula XIII (QWBA was run at 1, 8, 12, 24 and 72 hours post dose. After terminal blood collection, each euthanized animal was frozen in a hexane/dry ice bath and embedded in a 2% carboxymethylcellulose matrix according to MPI Research SOP ADME-112. The embedded carcasses were sectioned according to MPI Research SOP ADME-113 on a Leica CM3600 Cyromacrotome set to maintain −10 to −30° C. At least four fortified quality control standards of known radioactive concentration were placed into the frozen block prior to sectioning and used for section thickness quality control. The quality control standards were sectioned under the same conditions as the specimen. The intrasection and intersection variation of collected sections were determined by analyzing the quality control standards. Section variation must be less than 20% for quantitative analysis. Sections that were approximately 40μm thick were taken in the sagittal plane. Appropriate sections selected at various levels of interest in the block were collected to encompass the following tissues, organs, and biological fluids, where possible: adrenal gland, bladder (urinary) and contents (urine), blood (cardiac), bone, bone marrow, brain, eye, fat (brown), fat (white), heart, kidney, large intestine/cecum and contents, liver, lung, muscle, pancreas, prostate, salivary glands, skin, small intestine and contents, spleen, stomach and contents, testes, thymus, thyroid, mesenteric lymph nodes, and epididymis. A set of sections were mounted, exposed to phosphor imaging screens and scanned using the Storm 860 image acquisition system according to MPI Research SOP ADME-112. Quantification, relative to the calibration standards, were performed by image densitometry using MCID™ image analysis software according to MPI Research SOP ADME-114. A standard curve was constructed from the integrated response (MDC/mm2) and the nominal concentrations of the [^14C]Glucose calibration standards. Relative error should be less than 0.5 for each point on the curve. The concentrations of radioactivity were expressed as μCi/g and were converted to μg or ng-equivalents of DAP per gram of sample (μg- or ng-eq/g) using the specific activity of administered [^14C]DAP dose formulation. A lower limit of quantification (LLOQ) was applied to the data. The LLOQ was determined using the radioactive concentration of the lowest calibration standard used to generate a calibration curve divided by the specific activity of the dose formulation (μCi/ug). Artifacts, such as those produced by dislodged contents of the alimentary canal, were excluded from analysis during image analysis.

[2] = Rat blood PK and blood to serum ratio, Group 4; type: in vivo
Description: as §1, §2, §3

[3] = In vivo toxicity study, rats; settings: rat, read-out: Maximum tolerated dose
Description: (§4) A study was conducted to test the toxicity of labeled formula XIII in rats and dogs. Maximum tolerated doses were 40 mg/kg for rats and 35 mg/kg for dogs.

[4] = In vivo toxicity study, dogs; settings: dog, read-out: Maximum tolerated dose
Description: as §4

[5] = In vivo safety study in humans; settings: intravenous bolus doses up to 200 mg
Description: A study was conducted to test the safety profile of labeled formula XIII in humans in intravenous bolus doses up to 200 mg.

[2H]C1([2H])N(CCCNC(=O)[C@@H](N)CCCNC(=N)N)C([2H])([2H])C([2H])([2H])N(CCCNC(=O)[C@@H](N)CCCNC(=N)N)C1([2H])[2H] [formula XIII]
Concentration of Radioactivity in Urine ([1]; 12 Hours): 5011 ng Equivalents [^14C]DAP/g
Concentration of Radioactivity in Bone marrow ([1]; 24 Hours): 1987 ng Equivalents [^14C]DAP/g
Concentration of Radioactivity in Eye (lens) ([1]; 24 Hours): BLQ (Below limit of quantitation (<172 ng equivalents [^14C]PER977/g))
Concentration of Radioactivity in Gastric mucosa ([1]; 24 Hours): 1438 ng Equivalents [^14C]DAP/g
Concentration of Radioactivity in Kidney ([1]; 24 Hours): 39548 ng Equivalents [^14C]DAP/g
Concentration of Radioactivity in Kidney (cortex) ([1]; 24 Hours): 40820 ng Equivalents [^14C]DAP/g
Concentration of Radioactivity in Kidney (medulla) ([1]; 24 Hours): 2011 ng Equivalents [^14C]DAP/g
Concentration of Radioactivity in Large intestinal contents ([1]; 24 Hours): 1801 ng Equivalents [^14C]DAP/g
Concentration of Radioactivity in Small intestine ([1]; 24 Hours): 5090 ng Equivalents [^14C]DAP/g
Concentration of Radioactivity in Spinal cord ([1]; 24 Hours): BLQ (Below limit of quantitation (<172 ng equivalents [^14C]PER977/g))
Concentration of Radioactivity in Stomach contents ([1]; 24 Hours): BLQ (Below limit of quantitation (<172 ng equivalents [^14C]PER977/g))
Concentration of Radioactivity in Thymus ([1]; 24 Hours): 11451 ng Equivalents [^14C]DAP/g
Concentration of Radioactivity in Urinary bladder ([1]; 24 Hours): 606 ng Equivalents [^14C]DAP/g
Concentration of Radioactivity in Urine ([1]; 24 Hours): 4553 ng Equivalents [^14C]DAP/g
Concentration of Radioactivity in Blood ([1]; 72 Hours): BLQ (Below limit of quantitation (<172 ng equivalents [^14C]PER977/g))
Concentration of Radioactivity in Bone ([1]; 72 Hours): BLQ (Below limit of quantitation (<172 ng equivalents [^14C]PER977/g))
Concentration of Radioactivity in Bone marrow ([1]; 72 Hours): 841 ng Equivalents [^14C]DAP/g
Concentration of Radioactivity in Cerebellum ([1]; 72 Hours): BLQ (Below limit of quantitation (<172 ng equivalents [^14C]PER977/g))
Concentration of Radioactivity in Epididymis ([1]; 72 Hours): BLQ (Below limit of quantitation (<172 ng equivalents [^14C]PER977/g))
Concentration of Radioactivity in Kidney ([1]; 72 Hours): 18515 ng Equivalents [^14C]DAP/g
Concentration of Radioactivity in Kidney (cortex) ([1]; 72 Hours): 15748 ng Equivalents [^14C]DAP/g
Concentration of Radioactivity in Kidney (medulla) ([1]; 72 Hours): 556 ng Equivalents [^14C]DAP/g
Concentration of Radioactivity in Large intestinal contents ([1]; 72 Hours): 824 ng Equivalents [^14C]DAP/g
Concentration of Radioactivity in Medulla ([1]; 72 Hours): BLQ (Below limit of quantitation (<172 ng equivalents [^14C]PER977/g))
Concentration of Radioactivity in Muscle ([1]; 72 Hours): BLQ (Below limit of quantitation (<172 ng equivalents [^14C]PER977/g))
Concentration of Radioactivity in Seminal vesicles ([1]; 72 Hours): BLQ (Below limit of quantitation (<172 ng equivalents [^14C]PER977/g))
Concentration of Radioactivity in Small intestine ([1]; 72 Hours): 1597 ng Equivalents [^14C]DAP/g
Concentration of Radioactivity in Spinal cord ([1]; 72 Hours): BLQ (Below limit of quantitation (<172 ng equivalents [^14C]PER977/g))
Concentration of Radioactivity in Stomach contents ([1]; 72 Hours): BLQ (Below limit of quantitation (<172 ng equivalents [^14C]PER977/g))
Concentration of Radioactivity in Testes ([1]; 72 Hours): BLQ (Below limit of quantitation (<172 ng equivalents [^14C]PER977/g))
Concentration of Radioactivity in Thymus ([1]; 72 Hours): 8365 ng Equivalents [^14C]DAP/g
Concentration of Radioactivity in Urinary bladder ([1]; 72 Hours): 283 ng Equivalents [^14C]DAP/g
Concentration of Radioactivity in Urine ([1]; 72 Hours): 3866 ng Equivalents [^14C]DAP/g
Blood:Serum Ratio ([2]; rat Group 4, 1 hrs, rat 401M): 0.44
Blood:Serum Ratio ([2]; rat Group 4, 8 hrs, rat 402M): 1.32
Blood:Serum Ratio ([2]; rat Group 4, 12 hrs, rat 403M): 1.84
Blood:Serum Ratio ([2]; rat Group 4, 24 hrs, rat 404M): 2.27
Blood:Serum Ratio ([2]; rat Group 4, 72 hrs, rat 405M): 2.53
MTD [3]: 40 mg/kg
MTD [4]: 35 mg/kg
safety profile [5]: excellent safety profile

— patent US9999690B2, “Labeled compounds and methods of imaging, diagnosing cartilage disorders and diseases, and monitoring cartilage health using labeled and unlabeled compounds” (Perosphere Inc., priority 2013, dated 2018)
